Experimental data as given in patent publication US20120039926A1, “Compositions and Methods for Modulating Immunogenic Responses by Activating Dendritic Cells” (priority 2009, published 2012).

Assays:
[1] = system: A/J or C57BL/6 female mice; format: in vivo, mouse
[2] = system: A/J or C57BL/6 female mice; format: in vivo, mouse; conditions: sera of days 3, 10 and 24
[3] = system: C57BL/6 bone marrow (BM) cells; format: cell-based, mouse; conditions: second day after treatment, 14.5 micromoles
CD3- BM cells = test: Surface CD8 and intracellular IL-12p70 in CD3-depleted bone marrow cells; format: cell-based, mouse; conditions: BM cells after treatment
Text: CD3+ cells were removed from BM cells using the fluorescence activated cell sorter and then untreated or treated with JgD or JH. Flow cytometric analysis of the sorted population confirmed the removal of CD3 positive cells. The CD3− BM cells were labeled with FITC-anti-CD8 (Beckman Coulter (clone 53-6.7)), fixed with paraformaldehyde, permeabilized with saponin (Intraprep, Immunotech), labeled with PE-anti-IL-12p70 (Beckman Coulter) and then post fixed with paraformaldehyde prior to immunofluorescence analysis.

BM cells = test: Protein array of spent medium from treated BM cells; format: cell-based, mouse
Experimental: Bone marrow (BM) cells were prepared. Briefly, the femurs and tibias were obtained from five C57BL/6 female mice, and the ends were removed to expose the hollow bone packed with marrow. BM cells were flushed from the bones with cold Hanks Balanced Salt Solution (HBSS) using a sterile disposable 22 g needle and pooled. Red blood cells (RBCs) were lysed using Tris-buffered ammonium chloride and resultant cells were washed 3 times in HBSS. BM cells were suspended in tissue culture medium (TCM) (RPMI 1640 with glutaminie plus […] PenStrep, 50 uM 2-mercaptoethanol, and 5% fetal calf serum) at approximately 5×10^6 cells/ml and incubated for 1 hour at 37° C. in a 5% CO2 atmosphere in plastic tissue culture flasks to remove adherent, mature macrophages. Decanted non-adherent cells were resuspended in TCM and 1.5×10^6 BM cells in 1 ml were placed into each well of a 24-well tissue culture plate (Falcon) and either left untreated or treated with 14.5 micromoles of J, gD, JgD or JH vaccines. After incubation for 48 hrs at 37° C., cells were viewed and photographed for changes in morphology, tissue culture supernatants were removed and the cells were prepared for flow cytometric analysis.

human monocytes = format: cell-based; conditions: DC precursors (GMCSF and IL4), spent medium

Substance: J-ICBL: immune cell binding ligand, amino acid 38-50 from the β-2-microglobulin (DLLKNGERIEKVE), unconjugated
- IL-10 serum level relative to adjuvant control [1]: significantly decreased to only a half or to a third
- IL-12p40 serum level ([1]; versus adjuvant control): small but not significant increase
- IL-12p70 serum level ([1]; versus adjuvant control): small but not significant increase
- IL-12p70 in sera (direct ELISA), in words [2]: only trace or undetectable amounts
- CD11c expression on monocyte population of BM cells [3]: no discernable change
- CD86 expression on monocyte population of BM cells [3]: no discernable change
- IL-12p70 expressing cells (CD3- BM cells): no significant increase
- cytokine response in spent medium of treated BM cells (BM cells): failed to detect a cytokine response
- production of cytokines (protein array) (human monocytes): no significant production of cytokines
